#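 Five concentrations, 48 hours, 96-well plates. Definition used: TGI = concentration required for complete inhibition of growth.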
# Assays:
# Assay in all cases: inhibition of tumour cell growth, NCI panel, 48 h
# RXF 393 renal = system: RXF 393 renal
# OVCAR-3 ovarian = system: OVCAR-3 ovarian
# OVCAR-4 ovarian = system: OVCAR-4 ovarian
# SK-MEL-28 melanoma = system: SK-MEL-28 melanoma
# NCI-H460 lung = system: NCI-H460 lung
# SNB-78 CNS = system: SNB-78 CNS
# A498 renal = system: A498 renal
# HOP-62 NSCLC = system: HOP-62 NSCLC
# UACC-62 melanoma = system: UACC-62 melanoma
# UACC-257 melanoma = system: UACC-257 melanoma
# SF-268 CNS = system: SF-268 CNS
# SK-MEL-2 melanoma = system: SK-MEL-2 melanoma
# MALME-3M melanoma = system: MALME-3M melanoma
# DMS 114 small cell lung = system: DMS 114 small cell lung
# MOLT-4 leukemia = system: MOLT-4 leukemia
# M14 melanoma = system: M14 melanoma
# NCI-H23 lung = system: NCI-H23 lung
# SR leukemia = system: SR leukemia
# CCRF-CEM leukemia = system: CCRF-CEM leukemia
# K-562 leukemia = system: K-562 leukemia
# SF-295 CNS = system: SF-295 CNS
# COLO 205 colon = system: COLO 205 colon
# HT29 colon = system: HT29 colon
# UO-31 renal = system: UO-31 renal
# HOP-92 NSCLC = system: HOP-92 NSCLC
# NCI-H522 lung = system: NCI-H522 lung
# OVCAR-5 ovarian = system: OVCAR-5 ovarian
# KM20L2 colon = system: KM20L2 colon
# SNB-19 CNS = system: SNB-19 CNS
# SF-539 CNS = system: SF-539 CNS
# IGROV1 ovarian = system: IGROV1 ovarian
# LXFL 529 NSCLC = system: LXFL 529 NSCLC
# HL-60(TB) leukemia = system: HL-60(TB) leukemia
# SNB-75 CNS = system: SNB-75 CNS
# SK-OV-3 ovarian = system: SK-OV-3 ovarian
# U251 CNS = system: U251 CNS
# HCT-116 colon = system: HCT-116 colon
# M19-MEL melanoma = system: M19-MEL melanoma
# KM12 colon = system: KM12 colon
# ACHN renal = system: ACHN renal
# RPMI-8226 leukemia = system: RPMI-8226 leukemia
# EKVX NSCLC = system: EKVX NSCLC
# DLD-1 colon = system: DLD-1 colon
# OVCAR-8 ovarian = system: OVCAR-8 ovarian
# XF 498 CNS = system: XF 498 CNS
# TK-10 renal = system: TK-10 renal
# CAKI-1 renal = system: CAKI-1 renal
# 786-0 renal = system: 786-0 renal
# LOX IMVI melanoma = system: LOX IMVI melanoma
# NCI-H226 lung = system: NCI-H226 lung
# SN12C renal = system: SN12C renal
# SW-620 colon = system: SW-620 colon
# A549 NSCLC = system: A549 NSCLC
# HCT-15 colon = system: HCT-15 colon
# DMS 273 small cell lung = system: DMS 273 small cell lung
# SK-MEL-5 melanoma = system: SK-MEL-5 melanoma
# HCC-2998 colon = system: HCC-2998 colon
smiles,measurement,setting,value
COC1CCC(OS(C)(=O)=O)CO1 (stereo not drawn),TGI,RXF 393 renal,> 100 µM
same,TGI,OVCAR-3 ovarian,> 100 µM
same,TGI,OVCAR-4 ovarian,> 100 µM
same,TGI,SK-MEL-28 melanoma,> 100 µM
same,TGI,NCI-H460 lung,> 100 µM
same,TGI,SNB-78 CNS,> 100 µM
same,TGI,A498 renal,> 100 µM
same,TGI,HOP-62 NSCLC,> 100 µM
same,TGI,UACC-62 melanoma,> 100 µM
same,TGI,UACC-257 melanoma,> 100 µM
same,TGI,SF-268 CNS,> 100 µM
same,TGI,SK-MEL-2 melanoma,> 100 µM
same,TGI,MALME-3M melanoma,> 100 µM
same,TGI,DMS 114 small cell lung,> 100 µM
same,TGI,MOLT-4 leukemia,> 100 µM
same,TGI,M14 melanoma,> 100 µM
same,TGI,NCI-H23 lung,> 100 µM
same,TGI,SR leukemia,> 100 µM
same,TGI,CCRF-CEM leukemia,91.7 µM
same,TGI,K-562 leukemia,> 100 µM
same,TGI,SF-295 CNS,> 100 µM
same,TGI,COLO 205 colon,> 100 µM
same,TGI,HT29 colon,> 100 µM
same,TGI,UO-31 renal,> 100 µM
same,TGI,HOP-92 NSCLC,> 100 µM
same,TGI,NCI-H522 lung,> 100 µM
same,TGI,OVCAR-5 ovarian,> 100 µM
same,TGI,KM20L2 colon,> 100 µM
same,TGI,SNB-19 CNS,> 100 µM
same,TGI,SF-539 CNS,> 100 µM
same,TGI,IGROV1 ovarian,> 100 µM
same,TGI,LXFL 529 NSCLC,> 100 µM
same,TGI,HL-60(TB) leukemia,> 100 µM
same,TGI,SNB-75 CNS,> 100 µM
same,TGI,SK-OV-3 ovarian,> 100 µM
same,TGI,U251 CNS,> 100 µM
same,TGI,HCT-116 colon,> 100 µM
same,TGI,M19-MEL melanoma,> 100 µM
same,TGI,KM12 colon,> 100 µM
same,TGI,ACHN renal,> 100 µM
same,TGI,RPMI-8226 leukemia,98.2 µM
O=C(CC1(O)C(=O)Nc2ccccc21)c1ccc(O)cc1O (stereo not drawn),TGI,RXF 393 renal,> 100 µM
same,TGI,OVCAR-3 ovarian,> 100 µM
same,TGI,OVCAR-4 ovarian,> 100 µM
same,TGI,SK-MEL-28 melanoma,> 100 µM
same,TGI,NCI-H460 lung,> 100 µM
same,TGI,SNB-78 CNS,> 100 µM
same,TGI,EKVX NSCLC,> 100 µM
same,TGI,A498 renal,> 100 µM
same,TGI,DLD-1 colon,> 100 µM
same,TGI,HOP-62 NSCLC,> 100 µM
same,TGI,UACC-62 melanoma,> 100 µM
same,TGI,OVCAR-8 ovarian,> 100 µM
same,TGI,XF 498 CNS,> 100 µM
same,TGI,UACC-257 melanoma,> 100 µM
same,TGI,TK-10 renal,> 100 µM
same,TGI,CAKI-1 renal,> 100 µM
same,TGI,SF-268 CNS,> 100 µM
same,TGI,SK-MEL-2 melanoma,> 100 µM
same,TGI,786-0 renal,> 100 µM
same,TGI,MALME-3M melanoma,> 100 µM
same,TGI,DMS 114 small cell lung,> 100 µM
same,TGI,MOLT-4 leukemia,> 100 µM
same,TGI,M14 melanoma,> 100 µM
same,TGI,NCI-H23 lung,> 100 µM
same,TGI,K-562 leukemia,> 100 µM
same,TGI,SF-295 CNS,> 100 µM
same,TGI,COLO 205 colon,> 100 µM
same,TGI,HT29 colon,> 100 µM
same,TGI,UO-31 renal,> 100 µM
same,TGI,HOP-92 NSCLC,> 100 µM
same,TGI,NCI-H522 lung,> 100 µM
same,TGI,OVCAR-5 ovarian,> 100 µM
same,TGI,KM20L2 colon,> 100 µM
same,TGI,SNB-19 CNS,> 100 µM
same,TGI,LOX IMVI melanoma,> 100 µM
same,TGI,SF-539 CNS,> 100 µM
same,TGI,NCI-H226 lung,> 100 µM
same,TGI,SN12C renal,> 100 µM
same,TGI,IGROV1 ovarian,> 100 µM
same,TGI,LXFL 529 NSCLC,> 100 µM
same,TGI,SW-620 colon,> 100 µM
same,TGI,A549 NSCLC,> 100 µM
same,TGI,HL-60(TB) leukemia,> 100 µM
same,TGI,SNB-75 CNS,> 100 µM
same,TGI,HCT-15 colon,> 100 µM
same,TGI,SK-OV-3 ovarian,> 100 µM
same,TGI,DMS 273 small cell lung,> 100 µM
same,TGI,HCT-116 colon,> 100 µM
same,TGI,M19-MEL melanoma,> 100 µM
same,TGI,ACHN renal,> 100 µM
same,TGI,SK-MEL-5 melanoma,> 100 µM
same,TGI,RPMI-8226 leukemia,> 100 µM
CC1C(c2ccccc2)=CCON1c1ccccc1 (stereo not drawn),TGI,RXF 393 renal,> 100 µM
same,TGI,OVCAR-3 ovarian,> 100 µM
same,TGI,OVCAR-4 ovarian,> 100 µM
same,TGI,SK-MEL-28 melanoma,> 100 µM
same,TGI,NCI-H460 lung,> 100 µM
same,TGI,SNB-78 CNS,> 100 µM
same,TGI,EKVX NSCLC,> 100 µM
same,TGI,DLD-1 colon,> 100 µM
same,TGI,HOP-62 NSCLC,> 100 µM
same,TGI,UACC-62 melanoma,> 100 µM
same,TGI,OVCAR-8 ovarian,> 100 µM
same,TGI,XF 498 CNS,> 100 µM
same,TGI,UACC-257 melanoma,> 100 µM
same,TGI,CAKI-1 renal,> 100 µM
same,TGI,SF-268 CNS,> 100 µM
same,TGI,SK-MEL-2 melanoma,> 100 µM
same,TGI,786-0 renal,> 100 µM
same,TGI,MALME-3M melanoma,> 100 µM
same,TGI,DMS 114 small cell lung,> 100 µM
same,TGI,MOLT-4 leukemia,> 100 µM
same,TGI,M14 melanoma,> 100 µM
same,TGI,NCI-H23 lung,> 100 µM
same,TGI,SR leukemia,> 100 µM
same,TGI,CCRF-CEM leukemia,> 100 µM
same,TGI,K-562 leukemia,> 100 µM
same,TGI,SF-295 CNS,> 100 µM
same,TGI,HCC-2998 colon,> 100 µM
same,TGI,COLO 205 colon,> 100 µM
same,TGI,HT29 colon,> 100 µM
same,TGI,UO-31 renal,> 100 µM
same,TGI,NCI-H522 lung,> 100 µM
same,TGI,OVCAR-5 ovarian,> 100 µM
same,TGI,KM20L2 colon,> 100 µM
same,TGI,SNB-19 CNS,> 100 µM
same,TGI,LOX IMVI melanoma,> 100 µM
same,TGI,SF-539 CNS,> 100 µM
same,TGI,NCI-H226 lung,> 100 µM
same,TGI,SN12C renal,> 100 µM
same,TGI,IGROV1 ovarian,> 100 µM
same,TGI,LXFL 529 NSCLC,> 100 µM
same,TGI,SW-620 colon,> 100 µM
same,TGI,A549 NSCLC,> 100 µM
same,TGI,HL-60(TB) leukemia,> 100 µM
same,TGI,SNB-75 CNS,> 100 µM
same,TGI,HCT-15 colon,> 100 µM
same,TGI,SK-OV-3 ovarian,> 100 µM
same,TGI,U251 CNS,> 100 µM
same,TGI,HCT-116 colon,> 100 µM
same,TGI,M19-MEL melanoma,> 100 µM
same,TGI,KM12 colon,> 100 µM
same,TGI,ACHN renal,> 100 µM
same,TGI,SK-MEL-5 melanoma,> 100 µM
same,TGI,RPMI-8226 leukemia,> 100 µM
COc1ccc(C(=O)O)c2c(=O)c3ccccc3[nH]c12,TGI,RXF 393 renal,> 100 µM
same,TGI,OVCAR-4 ovarian,> 100 µM
same,TGI,SK-MEL-28 melanoma,> 100 µM
same,TGI,NCI-H460 lung,> 100 µM
same,TGI,SNB-78 CNS,> 100 µM
same,TGI,EKVX NSCLC,> 100 µM
same,TGI,A498 renal,> 100 µM
same,TGI,HOP-62 NSCLC,> 31.6 µM
same,TGI,UACC-62 melanoma,> 100 µM
same,TGI,OVCAR-8 ovarian,> 100 µM
same,TGI,XF 498 CNS,> 100 µM
same,TGI,UACC-257 melanoma,> 100 µM
same,TGI,TK-10 renal,> 100 µM
same,TGI,CAKI-1 renal,> 100 µM
same,TGI,SF-268 CNS,> 100 µM
same,TGI,SK-MEL-2 melanoma,> 100 µM
same,TGI,786-0 renal,> 100 µM
same,TGI,MALME-3M melanoma,> 100 µM
same,TGI,MOLT-4 leukemia,> 100 µM
same,TGI,M14 melanoma,> 31.6 µM
same,TGI,NCI-H23 lung,> 100 µM
same,TGI,SR leukemia,> 100 µM
same,TGI,CCRF-CEM leukemia,> 31.6 µM
same,TGI,K-562 leukemia,> 100 µM
same,TGI,SF-295 CNS,> 100 µM
same,TGI,HCC-2998 colon,> 100 µM
same,TGI,COLO 205 colon,> 100 µM
same,TGI,HT29 colon,> 100 µM
same,TGI,UO-31 renal,> 100 µM
same,TGI,HOP-92 NSCLC,> 100 µM
same,TGI,NCI-H522 lung,> 100 µM
same,TGI,OVCAR-5 ovarian,> 100 µM
same,TGI,KM20L2 colon,> 100 µM
same,TGI,SNB-19 CNS,> 100 µM
same,TGI,LOX IMVI melanoma,> 100 µM
same,TGI,SF-539 CNS,> 100 µM
same,TGI,NCI-H226 lung,> 100 µM
same,TGI,SN12C renal,> 100 µM
same,TGI,IGROV1 ovarian,> 100 µM
same,TGI,LXFL 529 NSCLC,> 100 µM
same,TGI,SW-620 colon,> 100 µM
same,TGI,A549 NSCLC,> 100 µM
same,TGI,HL-60(TB) leukemia,> 100 µM
same,TGI,HCT-15 colon,> 100 µM
same,TGI,SK-OV-3 ovarian,> 100 µM
same,TGI,U251 CNS,> 100 µM
same,TGI,DMS 273 small cell lung,> 100 µM
same,TGI,HCT-116 colon,> 100 µM
same,TGI,M19-MEL melanoma,> 100 µM
same,TGI,KM12 colon,> 100 µM
same,TGI,ACHN renal,> 100 µM
same,TGI,RPMI-8226 leukemia,> 100 µM
